Among the data in US20200069691A1, “HETEROCYCLIC COMPOUNDS AS HIV PROTEASE INHIBITORS” (Merck Sharp & Dohme Corp., priority 2016, published 2020) are IC50 values, retold here.

The assay has as its target T1, wild-type HIV-1 protease (Human immunodeficiency virus type 1 group M subtype B, UniProt P04585).
T1 construct: Escherichia coli expressed wild-type HIV-1 protease protein
Kind of assay: Assay for Inhibition of Microbial Expressed HIV Protease (peptide substrate cleavage, LC-MS/MS readout). The assay is classed as biochemical. The following applies: E. coli expressed wild-type HIV-1 protease, mean of at least two independent experiments, read-out: HIV Pr Enzyme HIV1 PR IC50. The essentials: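 E. coli-expressed wild-type HIV-1 protease ([…]) was preincubated with inhibitor 30 min at room temperature in pH 5.5 acetate buffer (100 mM NaCl, 0.1% BSA). Then 400 μM octapeptide substrate was added and reacted 1 h at 30 °C; inhibition came from LC-MS/MS product peak areas, mean of ≥2 experiments.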

Take `CC(C)C[C@]1(c2ccccc2)NC(=N)N([C@H](C)c2cccc(C(=O)N3CCN(C)C(=O)C3)c2)C1=O` [Compound 328, 4-[(3-{(1R)-1-[2-imino-4-(2-methylpropyl)-5-oxo-4-phenylimidazolidin-1-yl]ethyl}phenyl)carbonyl]-1-methylpiperazin-2-one]: the IC50 (commonly the concentration at which inhibition is half-maximal) was found to be 64.8 nM. Regarding `N=C1NC(c2ccccc2)(c2ccccc2)C(=O)N1Cc1cccc(C(=O)N2CCn3c(nnc3C(F)(F)F)C2)c1` [Compound 329, 2-imino-5,5-diphenyl-3-(3-{[3-(trifluoromethyl)-5,6-dihydro[1,2,4]triazolo[4,3-a]pyrazin-7(8H)-yl]carbonyl}benzyl) imidazolidin-4-one], the 50% inhibitory concentration (IC50) turned out to be 66.9 nM. For `COC(=O)N1CCN(C(=O)c2cccc(CN3C(=N)NC(c4ccccc4)(c4ccccc4)C3=O)c2)CC1` [Compound 330, methyl 4-({3-[(2-imino-5-oxo-4.4-diphenylimidazolidin-1-yl)methyl]phenyl}carbonyl) piperazine-1-carboxylate] the value was 67 nM; for `C[C@@H](c1cccc(C(=O)N2Cc3ccccc3C2)c1)N1C(=N)NC(c2ccccc2)(c2ccccc2)C1=O` [Compound 331, 3-{(1S)-1-[3-(1,3-dihydro-2H-isoindol-2-ylcarbonyl)phenyl]ethyl}-2-imino-5,5-diphenylimidazolidin-4-one], 67.6 nM; for `N=C1NC(c2ccc(F)cc2)(c2ccc(F)cc2)C(=O)N1Cc1cccc(C(=O)N2CCC(n3c(=O)[nH]c4ncccc43)CC2)c1` [Compound 332, 1-{1-[(3-{[4,4-bis(4-fluorophenyl)-2-imino-5-oxoimidazolidin-1-yl]methyl}phenyl)carbonyl]piperidin-4-yl}-1,3-dihydro-2H-imidazo[4,5-b]pyridin-2-one], 68 nM. Then `N=C1NC(c2ccccc2)(c2ccccc2)C(=O)N1Cc1cccc(C(=O)N2CCC(Oc3ccccc3)CC2)c1` [Compound 333, 2-imino-3-{3-[(4-phenoxypiperidin-1-yl)carbonyl]benzyl}-5,5-diphenylimidazolidin-4-one], with 69.6 nM; and `N=C1NC(c2ccccc2)(c2ccccc2)C(=O)N1Cc1cccc(C(=O)N2CCc3ccc(C(F)(F)F)cc3C2)c1` [Compound 334, 2-imino-5,5-diphenyl-3-(3-{[7-(trifluoromethyl)-3,4-dihydroisoquinolin-2(1H)-yl]carbonyl}benzyl) imidazolidin-4-one], with 70 nM.

As for `CC(=O)N1CCN(C(=O)c2cccc(CN3C(=N)NC(c4ccc(F)cc4)(c4ccc(F)cc4)C3=O)c2)CC1` [Compound 335, 3-{3-[(4-acetylpiperazin-1-yl)carbonyl]benzyl}-5,5-bis(4-fluorophenyl)-2-iminoimidazolidin-4-one], the half-maximal inhibitory concentration (IC50) was 70.5 nM. In the case of `N=C1NC(c2ccccc2)(c2ccccc2)C(=O)N1Cc1cccc(C(=O)N2CCc3cc(C(F)(F)F)ccc3C2)c1` [Compound 336, 2-imino-5,5-diphenyl-3-(3-{[6-(trifluoromethyl)-3,4-dihydroisoquinolin-2(1H)-yl]carbonyl}benzyl) imidazolidin-4-one], the concentration for half-maximal inhibition (IC50) is 71 nM. For `N=C1NC(c2ccccc2)(c2ccccc2)C(=O)N1Cc1cccc(C(=O)N2CCn3c(Cc4ccccc4)cnc3C2)c1` [Compound 337, 3-{3-[(3-benzyl-5,6-dihydroimidazo [1,2-a]pyrazin-7(8H)-yl)carbonyl]benzyl}-2-imino-5,5-diphenylimidazolidin-4-one] the value was 72 nM; for `N=C1NC(c2ccc(F)cc2)(c2ccc(F)cc2)C(=O)N1Cc1cccc(C(=O)N2CCC(n3c(=O)[nH]c4ccccc43)CC2)c1` [Compound 338, 1-{1-[(3-{[4,4-bis(4-fluorophenyl)-2-imino-5-oxoimidazolidin-1-yl]methyl}phenyl)carbonyl]piperidin-4-yl}-1,3-dihydro-2H-benzimidazol-2-one], 73.5 nM. In the case of `N=C1NC(c2ccccc2)(c2ccccc2)C(=O)N1Cc1cccc(C(=O)N2CCn3ccnc3C2)c1` [Compound 339, 3-[3-(5,6-dihydroimidazo[1,2-a]pyrazin-7(8H)-ylcarbonyl)benzyl]-2-imino-5,5-diphenylimidazolidin-4-one], the half-maximal inhibitory concentration (IC50) amounted to 75.8 nM. For `COc1nnc2n1CCN(C(=O)c1cccc(CN3C(=N)NC(c4ccccc4)(c4ccccc4)C3=O)c1)C2` [Compound 340, 2-imino-3-{3-[(3-methoxy-5,6-dihydro[1,2,4]triazolo[4,3-a]pyrazin-7(8H)-yl)carbonyl]benzyl}-5,5-diphenylimidazolidin-4-one] the value was 76.4 nM; for `N=C1NC(c2ccccc2)(c2ccccc2)C(=O)N1Cc1cc(F)cc(C(=O)N2CCn3c(nnc3C(F)(F)F)C2)c1` [Compound 341], 77.5 nM. Then `CC(C)CC1(c2ccccc2)NC(=N)N(Cc2cccc(C(=O)N3CCN(c4ccccc4)CC3)c2)C1=O` (centres unmarked) [Compound 342, 2-imino-5-(2-methylpropyl)-5-phenyl-3-{3-[(4-phenylpiperazin-1-yl)carbonyl]benzyl} imidazolidin-4-one], with 78.8 nM. Take `N=C1NC(c2ccccc2)(c2ccccc2)C(=O)N1Cc1cccc(C(=O)N2CCn3nc(C(F)(F)F)nc3C2)c1` [Compound 343, 2-imino-5,5-diphenyl-3-(3-{[2-(trifluoromethyl)-5,6-dihydro-[1,2,4]triazolo[1,5-a]pyrazin-7(8H)-yl]carbonyl}benzyl) imidazolidin-4-one]: the half-inhibitory concentration (IC50) came to 79.8 nM.

For the compound `CCOC(=O)NC1CCN(C(=O)c2cc(F)cc(CN3C(=N)NC(c4ccccc4)(c4ccccc4)C3=O)c2)CC1` [Compound 344, ethyl [1-({3-fluoro-5-[(2-imino-5-oxo-4,4-diphenylimidazolidin-1-yl)methyl]phenyl}carbonyl)piperidin-4-yl]carbamate], the IC50 was found to be 81.4 nM.

As for `CCCC1(c2ccccc2)NC(=N)N(Cc2cccc(C(=O)N3Cc4cnc(C)nc4C3)c2)C1=O` (centres unmarked) [Compound 345, 2-imino-3-{3-[(2-methyl-5,7-dihydro-6H-pyrrolo[3,4-d]pyrimidin-6-yl)carbonyl]benzyl}-5-phenyl-5-propylimidazolidin-4-one], the IC50 is 81.9 nM. As for `CC(C)CC1(c2ccccc2)NC(=N)N(Cc2cccc(C(=O)N3CCC(n4c(=O)[nH]c5nc(F)ccc54)CC3)c2)C1=O` (centres unmarked) [Compound 346, 5-fluoro-1-{1-[(3-{[2-imino-4-(2-methylpropyl)-5-oxo-4-phenylimidazolidin-1-yl]methyl}phenyl)-carbonyl]piperidin-4-yl}-1,3-dihydro-2H-imidazo[4,5-b]pyridin-2-one], the IC50 is 82.5 nM. Then `COC(=O)N1CCN(C(=O)c2cccc(CN3C(=N)NC(c4ccc(F)cc4)(c4cccc(C(N)=O)c4)C3=O)c2)CC1` (centres unmarked) [Compound 347, methyl 4-[(3-{[4-(3-carbamoylphenyl)-4-(4-fluorophenyl)-2-imino-5-oxoimidazolidin-1-yl]methyl}phenyl)-carbonyl]piperazine-1-carboxylate], with 83.3 nM; and `COC(=O)N1CCN(C(=O)c2cccc(CN3C(=N)NC(CCC(C)C)(c4cccc(F)c4)C3=O)c2)CC1` (centres unmarked) [Compound 348, methyl 4-[(3-{[4-(3-fluorophenyl)-2-imino-4-(3-methylbutyl)-5-oxoimidazolidin-1-yl]methyl}phenyl)-carbonyl]piperazine-1-carboxylate], with 84.1 nM.

For `N=C1NC(c2ccccc2)(c2ccccc2)C(=O)N1Cc1cccc(C(=O)N2CCn3cc(C(F)(F)F)nc3C2)c1` [Compound 349, 2-imino-5,5-diphenyl-3-(3-{[2-(trifluoromethyl)-5,6-dihydroimidazo-[1,2-a]pyrazin-7(8H)-yl]carbonyl}-benzyl)imidazolidin-4-one], the IC50 is 84.2 nM. For `COC(=O)N1CCN(C(=O)c2cccc(CN3C(=N)NC(c4ccc(F)cc4)(c4cccc(C#N)c4)C3=O)c2)CC1` (centres unmarked) [Compound 350, methyl 4-[(3-{[4-(3-cyanophenyl)-4-(4-fluorophenyl)-2-imino-5-oxoimidazolidin-1-yl]methyl}phenyl)carbony1] piperazine-1-carboxylate] the value was 85.3 nM; for `CC(C)CCC1(c2ccccc2)NC(=N)N(Cc2cccc(C(=O)N3CCNC(=O)C3)c2)C1=O` (centres unmarked) [Compound 351, 4-[(3-{[2-imino-4-(3-methylbutyl)-5-oxo-4-phenylimidazolidin-1-yl]methyl}-phenyl)carbonyl]piperazin-2-one], 86.7 nM.

For `CC(=O)N1CCN(C(=O)c2cccc(CN3C(=N)NC(c4ccccc4)(c4ccccc4)C3=O)c2)CC1` [Compound 352, 3-{3-[(4-acetylpiperazin-1-yl)carbonyl]benzyl}-2-imino-5,5-diphenylimidazolidin-4-one], the IC50 turned out to be 86.9 nM. For `CN1CCN(C(=O)c2cc(F)cc(CN3C(=N)NC(c4ccccc4)(c4ccccc4)C3=O)c2)CC1=O` [Compound 353, 4-({3-fluoro-5-[(2-imino-5-oxo-4,4-diphenylimidazolidin-1-yl)methyl]phenyl}carbonyl)-1-methylpiperazin-2-one] the value was 88.8 nM; for `COC(=O)N1CCN(C(=O)c2cccc(CN3C(=N)NC(CCC(C)C)(c4cccc(-c5cccnc5)c4)C3=O)c2)CC1` (centres unmarked) [Compound 354, methyl 4-[(3-{[2-imino-4-(3-methylbutyl)-5-oxo-4-(3-pyridin-3-ylphenyl)imidazolidin-1-yl]methyl}phenyl)carbonyl] piperazine-1-carboxylate], 89.1 nM. For `CCOC(=O)NC1CCN(C(=O)c2cccc(CN3C(=N)NC(c4ccccc4)(c4ccccc4)C3=O)c2)CC1` [Compound 355, ethyl [1-({3-[(2-imino-5-oxo-4,4-diphenylimidazolidin-1-yl)methyl]phenyl}carbonyl)piperidin-4-yl]carbamate] the value was 89.8 nM; for `CCc1nnc2n1CCN(C(=O)c1cccc(CN3C(=N)NC(c4ccccc4)(c4ccccc4)C3=O)c1)C2` [Compound 356, 3-{3-[(3-ethyl-5,6-dihydro[1,2,4]triazolo[4,3-a]pyrazin-7(8H)-yl)carbonyl]benzyl}-2-imino-5,5-diphenylimidazolidin-4-one], 91.2 nM.
